{
  "source": "patent US9096599B2",
  "about": "“Spiroindoline compounds” (Intervet Inc., priority 2011, dated 2015)",
  "tested_on": "Ascaridia galli (L3) and Oesophagostumum dentatum (L3 and L4) larvae",
  "test": "In vitro anthelmintic larval test, minimum effective concentration by microscopic examination",
  "assay_type": "cell-based",
  "conditions": "read-out: minimum effective concentration (MEC)",
  "method": "C: Biological Examples Efficacy Against Ascaridia galli and Oesophagostomum dentatum\nAnthelmintic effects of compounds of this invention (numbers refer to compound numbers in Table I) were tested in vitro using gut-welling larval stages of two parasitic nematode species: Ascaridia galli (intestinal roundworm of chicken), larval stage 3 (“L3”); and Oesophagostumum dentatum (nodular worm of swine), larval stages 3 and 4 (respectively “L3” and “L4”). When conducting these experiments, DMSO-solutions of various concentrations of compounds of this invention were prepared and incubated in 96-well microtiter plates. The parasites were then distributed at 20 larvae per well. The anthelmintic effects were classified by microscopic examination. The microscopic examination included assessing mortality, damage, motility, progression of development, and neutral red uptake by the larvae in comparison to a DMSO-control.",
  "key": {"[1]": {"conditions": "activity against one or both of the nematodes (A. galli L3; O. dentatum L3, L4), 96-well plates, 20 larvae per well, vs DMSO-control"}},
  "note": "Where two headings read alike, the source gives them in different places.",
  "data": [
    {"smiles": "Cc1cc(C(=O)N2CC3(CCN(C/C=C/c4ccc(C)c(C)c4)CC3)c3cc(Sc4ccc(F)cc4)ccc32)cc(Cl)n1", "note": "[Compound 15, (2-chloro-6-methyl-4-pyridyl)-[1′-[(E)-3-(3,4-dimethylphenyl)allyl]-5-(4-fluorophenyl)sulfanyl-spiro[indoline-3,4′-piperidine]-1-yl]methanone]", "values": [
      {"measurement": "minimal effective concentration", "setting": "[1]", "result": "≤ 50", "unit": "µM"}
    ]},
    {"smiles": "Cc1cc(C(=O)N2CC3(CCN(C/C=C/c4ccc(C)c(C)c4)CC3)c3cc(Sc4ccc(F)cc4)ccc32)ccn1", "note": "[Compound 16, [1′-[(E)-3-(3,4-dimethylphenyl)allyl]-5-(4-fluorophenyl)sulfanyl-spiro[indoline-3,4′-piperidine]-1-yl]-(2-methyl-4-pyridyl)methanone]", "values": [
      {"measurement": "minimal effective concentration", "setting": "[1]", "result": "≤ 50", "unit": "µM"}
    ]},
    {"smiles": "O=C(c1ccnc(Cl)c1)N1CC2(CCN(C/C=C/c3ccccc3)CC2)c2cc(Sc3ccc(F)cc3)ccc21", "note": "[Compound 11, (2-chloro-4-pyridyl)-[1′-[(E)-cinnamyl]-5-(4-fluorophenyl)sulfanyl-spiro[indoline-3,4′-piperidine]-1-yl]methanone]", "values": [
      {"measurement": "minimal effective concentration", "result": "≤ 50", "unit": "µM"}
    ]},
    {"smiles": "O=C(c1ccnc(Cl)c1)N1CC2(CCN(C/C=C/c3ccc(F)c(F)c3)CC2)c2cc(Sc3ccc(F)cc3)ccc21", "note": "[Compound 32, (2-chloro-4-pyridyl)-[1′-[(E)-3-(3,4-difluorophenyl)allyl]-5-(4-fluorophenyl)sulfanyl-spiro[indoline-3,4′-piperidine]-1-yl]methanone]", "values": [
      {"measurement": "minimal effective concentration", "setting": "[1]", "result": "≤ 50", "unit": "µM"}
    ]}
  ]
}
